From ChEMBL document CHEMBL1833922, “A compound isolated from Schisandra chinensis induces apoptosis” (2011)
Activity calls are given as the source filed them. No cut-off for these calls is given here.

What was measured:
HCT-116 [1] = experiment: Anticlonogenic activity against human HCT116 cells at 2 uM after 7 days using crystal violet staining; assay type: functional
HCT-116 [2] = experiment: Induction of apoptosis in human HCT116 cells assessed as accumulation of cleaved caspase-7 at 10 uM after 48 hrs by Western blot analysis; assay type: functional, cell-based
HCT-116 [3] = experiment: Antiproliferative activity against human HCT116 cells assessed as cell growth inhibition at 10 to 40 uM by WST-8 assay; assay type: functional, cell-based; details: TDE = time-dependent effect
HCT-116 [4] = experiment: Induction of apoptosis in human HCT116 cells assessed as increase in cleaved PARP level at 10 uM by Western blot analysis; assay type: functional, cell-based; details: TDE = time-dependent effect
HCT-116 [5] = experiment: Induction of apoptosis in human HCT116 cells assessed as fragmented nuclei at 10 uM after 48 hrs by fluorescence microscopy method; assay type: functional, cell-based
HCT-116 [6] = experiment: Induction of apoptosis in human HCT116 cells assessed as condensed chromatin at 10 uM after 48 hrs by fluorescence microscopy method; assay type: functional, cell-based
HCT-116 [7] = experiment: Antiproliferative activity against human HCT116 cells assessed as cell growth inhibition after 12 to 48 hrs by WST-8 assay; assay type: functional, cell-based
HCT-116 [8] = experiment: Induction of apoptosis in human HCT116 cells assessed as shrunken nuclei at 10 uM after 48 hrs by fluorescence microscopy method; assay type: functional, cell-based

COc1cc2c(c(OC)c1OC)-c1c(cc3c(c1OC)OCO3)C[C@@H](C)[C@](C)(O)C2
Activity (HCT-116 [1]): 50% | Activity (HCT-116 [2]): Active | growth inhibition (GI) (HCT-116 [3]): tde | Activity (HCT-116 [4]): tde | Activity (HCT-116 [5]): Active | Activity (HCT-116 [6]): Active | growth inhibition (GI) (HCT-116 [7]): Dose-dependent effect | Activity (HCT-116 [8]): Active

COc1cc2c(c(OC)c1OC)-c1c(cc3c(c1OC)OCO3)C[C@H](C)[C@](C)(O)C2
Activity (HCT-116 [2]): Active
